Tests used:
Assay in all cases: Test D controlled growth environment herbicide test, pre- and postemergence
Format in all cases: in vivo
[1] = system: Russian thistle (Salsola kali)
From the text: (§1) Seeds of plant species selected from bluegrass (annual bluegrass, Poa annua), blackgrass (Alopecurus myosuroides), Canada thistle (Cirsium arvense), canarygrass (Phalaris minor), chickweed (common chickweed, Stellaria media), geranium, cutleaf (cutleaf geranium, Geranium dissectum), galium (catchweed bedstraw, Galium aparine), bromegrass, downy (downy bromegrass, Bromus tectorum), field poppy (Papaver rhoeas), field violet (Viola arvensis), foxtail, green (green foxtail, Setaria viridis), deadnettle (henbit deadnettle, Lamium amplexicaule), ryegrass, Italian (Italian ryegrass, Lolium multiflorum), kochia (Kochia scoparia), lambsquarters (Chenopodium album), oilseed rape (Brassica napus), pigweed (Amaranthus retroflexus), chamomile (scentless chamomile, Matricaria inodora), Russian thistle (Salsola kali), speedwell (bird's-eye speedwell, Veronica persica), barley, spring (spring barley, Hordeum vulgare), wheat, spring (spring wheat, Triticum aestivum), buckwheat, wild (wild buckwheat, Polygonum convolvulus), mustard, wild (wild mustard, Sinapis arvensis), oat, wild (wild oat, Avena fatua), radish, wild (wild radish, Raphanus raphanistrum), windgrass (Apera spica-venti), barley, winter (winter barley, Hordeum vulgare), and wheat, winter (winter wheat, Triticum aestivum) were planted into a silt loam soil and treated preemergence with test chemicals formulated in a non-phytotoxic solvent mixture which included a surfactant.
(§2) At the same time, these species were planted in pots containing Redi-Earth® planting medium (Scotts Company, 14111 Scottslawn Road, Marysville, Ohio 43041) comprising spaghnum peat moss, vermiculite, wetting agent and starter nutrients and treated with postemergence applications of the test chemicals formulated in the same manner. Plants ranged in height from 2 to 18 cm (1- to 4-leaf stage). Treated plants and controls were maintained in a controlled growth environment for 14 to 21 d after which time all species were compared to controls and visually evaluated. Plant response ratings, summarized in Table D, are based on a scale of 0 to 100 where 0 is no effect and 100 is complete control. A dash (-) response means no test result.

[2] = system: barley, spring (spring barley, Hordeum vulgare)
From the text: as §1, §2

[3] = system: chamomile (scentless chamomile, Matricaria inodora)
From the text: as §1, §2

[4] = system: chickweed (common chickweed, Stellaria media)
From the text: as §1, §2

[5] = system: deadnettle (henbit deadnettle, Lamium amplexicaule)
From the text: as §1, §2

[6] = system: field poppy (Papaver rhoeas)
From the text: as §1, §2

[7] = system: field violet (Viola arvensis)
From the text: as §1, §2

[8] = system: kochia (Kochia scoparia)
From the text: as §1, §2

[9] = system: mustard, wild (wild mustard, Sinapis arvensis)
From the text: as §1, §2

[10] = system: oat, wild (wild oat, Avena fatua)
From the text: as §1, §2

[11] = system: oilseed rape (Brassica napus)
From the text: as §1, §2

[12] = system: radish, wild (wild radish, Raphanus raphanistrum)
From the text: as §1, §2

[13] = system: speedwell (bird's-eye speedwell, Veronica persica)
From the text: as §1, §2

[14] = system: wheat, winter (winter wheat, Triticum aestivum)
From the text: as §1, §2

[15] = Postemergence, 31 g ai/ha, scale 0 to 100 (0 no effect, 100 complete control)
[16] = Postemergence, 125 g ai/ha, visual rating on scale 0 (no effect) to 100 (complete control), 14 to 21 d
[17] = Postemergence, 250 g ai/ha, scale 0 to 100 (0 no effect, 100 complete control)
[18] = Preemergence, 62 g ai/ha, scale 0 to 100 (0 no effect, 100 complete control)
[19] = Preemergence, 125 g ai/ha, scale 0 to 100 (0 no effect, 100 complete control)
[20] = Preemergence, 250 g ai/ha, scale 0 to 100, 0 no effect, 100 complete control
[21] = postemergence, 62 g ai/ha, scale 0 to 100, 0 no effect, 100 complete control

Cc1cc2ccccc2c(-c2c(O)c(C)nn(C)c2=O)c1C [Compound 34]
Russian Thistle plant response rating [1, 15]: 70
Plant response rating, Russian Thistle [1, 16]: 80
Plant response rating, Russian Thistle [1, 17]: 85
Plant response rating (scale of 0 to 100), Russian Thistle ([1]; Preemergence, 31 g ai/ha): 0
Plant response rating, Russian Thistle [1, 18]: 0
Plant response rating, Russian Thistle [1, 19]: 10
Plant response rating, Russian Thistle [1, 20]: 15
Plant response rating, Russian Thistle [1, 21]: 80
Plant response rating, Barley, Spring [2, 15]: 0
Plant response rating, Barley, Spring [2, 16]: 0
Plant response rating, Barley, Spring [2, 17]: 5
Plant response rating (scale of 0 to 100), Barley, Spring ([2]; Preemergence, 31 g ai/ha): 0
Plant response rating, Barley, Spring [2, 18]: 0
Plant response rating, Barley, Spring [2, 19]: 0
Barley, Spring plant response rating [2, 20]: 20
Plant response rating, Barley, Spring [2, 21]: 0
Chamomile plant response rating [3, 15]: 75
Plant response rating, Chamomile [3, 16]: 100
Plant response rating, Chamomile [3, 17]: 100
Plant response rating, Chamomile [3, 21]: 80
Chickweed plant response rating [4, 15]: 95
Plant response rating, Chickweed [4, 16]: 100
Plant response rating, Chickweed [4, 17]: 100
Plant response rating (scale of 0 to 100), Chickweed ([4]; Preemergence, 31 g ai/ha): 85
Plant response rating, Chickweed [4, 18]: 95
Plant response rating, Chickweed [4, 19]: 100
Plant response rating, Chickweed [4, 20]: 100
Plant response rating, Chickweed [4, 21]: 100
Deadnettle plant response rating [5, 15]: 95
Plant response rating, Deadnettle [5, 16]: 100
Plant response rating, Deadnettle [5, 17]: 100
Plant response rating (scale of 0 to 100), Deadnettle ([5]; Preemergence, 31 g ai/ha): 0
Plant response rating, Deadnettle [5, 18]: 40
Plant response rating, Deadnettle [5, 19]: 50
Plant response rating, Deadnettle [5, 20]: 95
Plant response rating, Deadnettle [5, 21]: 100
Field Poppy plant response rating [6, 15]: 100
Plant response rating, Field Poppy [6, 16]: 100
Plant response rating, Field Poppy [6, 17]: 100
Plant response rating, Field Poppy [6, 18]: 100
Plant response rating, Field Poppy [6, 19]: 100
Plant response rating, Field Poppy [6, 20]: 100
Plant response rating, Field Poppy [6, 21]: 100
Field Violet plant response rating [7, 15]: 75
Plant response rating, Field Violet [7, 16]: 95
Plant response rating, Field Violet [7, 17]: 95
Plant response rating (scale of 0 to 100), Field Violet ([7]; Preemergence, 31 g ai/ha): 15
Plant response rating, Field Violet [7, 18]: 25
Plant response rating, Field Violet [7, 19]: 75
Plant response rating, Field Violet [7, 20]: 95
Plant response rating, Field Violet [7, 21]: 100
Kochia plant response rating [8, 15]: 60
Plant response rating, Kochia [8, 16]: 85
Plant response rating, Kochia [8, 17]: 95
Plant response rating (scale of 0 to 100), Kochia ([8]; Preemergence, 31 g ai/ha): 25
Plant response rating, Kochia [8, 18]: 10
Plant response rating, Kochia [8, 19]: 15
Plant response rating, Kochia [8, 20]: 50
Plant response rating, Kochia [8, 21]: 85
Mustard, Wild plant response rating [9, 15]: 80
Plant response rating, Mustard, Wild [9, 16]: 100
Plant response rating, Mustard, Wild [9, 17]: 100
Plant response rating (scale of 0 to 100), Mustard, Wild ([9]; Preemergence, 31 g ai/ha): 15
Plant response rating, Mustard, Wild [9, 18]: 25
Plant response rating, Mustard, Wild [9, 19]: 75
Plant response rating, Mustard, Wild [9, 20]: 100
Plant response rating, Mustard, Wild [9, 21]: 85
Oat, Wild plant response rating [10, 15]: 75
Plant response rating, Oat, Wild [10, 16]: 95
Plant response rating, Oat, Wild [10, 17]: 95
Plant response rating (scale of 0 to 100), Oat, Wild ([10]; Preemergence, 31 g ai/ha): 70
Plant response rating, Oat, Wild [10, 18]: 75
Plant response rating, Oat, Wild [10, 19]: 85
Plant response rating, Oat, Wild [10, 20]: 90
Plant response rating, Oat, Wild [10, 21]: 85
Oilseed Rape plant response rating [11, 15]: 65
Plant response rating, Oilseed Rape [11, 16]: 75
Plant response rating, Oilseed Rape [11, 17]: 90
Plant response rating (scale of 0 to 100), Oilseed Rape ([11]; Preemergence, 31 g ai/ha): 10
Plant response rating, Oilseed Rape [11, 18]: 55
Plant response rating, Oilseed Rape [11, 19]: 50
Plant response rating, Oilseed Rape [11, 20]: 85
Plant response rating, Oilseed Rape [11, 21]: 70
Radish, Wild plant response rating [12, 15]: 65
Plant response rating, Radish, Wild [12, 16]: 90
Plant response rating, Radish, Wild [12, 17]: 95
Plant response rating (scale of 0 to 100), Radish, Wild ([12]; Preemergence, 31 g ai/ha): 0
Plant response rating, Radish, Wild [12, 18]: 0
Plant response rating, Radish, Wild [12, 19]: 60
Plant response rating, Radish, Wild [12, 20]: 60
Plant response rating, Radish, Wild [12, 21]: 85
Speedwell plant response rating [13, 15]: 65
Plant response rating, Speedwell [13, 16]: 100
Plant response rating, Speedwell [13, 17]: 100
Plant response rating (scale of 0 to 100), Speedwell ([13]; Preemergence, 31 g ai/ha): 100
Plant response rating, Speedwell [13, 18]: 100
Plant response rating, Speedwell [13, 19]: 100
Plant response rating, Speedwell [13, 20]: 100
Plant response rating, Speedwell [13, 21]: 75
Wheat, Winter plant response rating [14, 15]: 5
Plant response rating, Wheat, Winter [14, 16]: 15
Plant response rating, Wheat, Winter [14, 17]: 25
Plant response rating (scale of 0 to 100), Wheat, Winter ([14]; Preemergence, 31 g ai/ha): 0
Plant response rating, Wheat, Winter [14, 18]: 0
Plant response rating, Wheat, Winter [14, 19]: 25
Plant response rating, Wheat, Winter [14, 20]: 40
Plant response rating, Wheat, Winter [14, 21]: 25

— patent US10597388B2, “Pyridazinone herbicides” (FMC CORPORATION, priority 2014, dated 2020)
